# Laboratory results from patent publication US7524964B2, “Tetrahydrothiopyrano pyrazole cannabinoid modulators” (Janssen Pharmaceutica NV, priority 2005, dated 2009).
# Experiments:
# human CB1 receptor = human CB1 receptor (Homo sapiens, UniProt P21554); test: Binding assay, cannabinoid CB1 receptor ([3H]-CP-55,940 displacement); parameters: expressed in transfected cells; host or cells: SK-N-MC cells, pcDNA3 CB-1 (human), semi-purified membranes; conditions: read-out: CB1 binding percent inhibition; for inhibition at 1 µM: test concentration 1 μM (superscript b); for inhibition at 10 µM: test concentration 10 μM (superscript c)
# Procedure: (§1) Binding Assay for CB1 or CB2 Agonists or Inverse Agonists
# (§2) The human CB-1 and CB-2 receptors were stably expressed in SK-N-MC cells transfected with pcDNA3 CB-1 (human) or pcDNA3 CB-2 (human). The cells were grown in T-180 cell culture flasks under standard cell culture conditions at 37° C. in a 5% CO2 atmosphere. The cells were harvested by trypsinization and homogenized in a homogenization buffer (10 mM Tris, 0.2 mM MgCl2, 5 mM KCl, with protease inhibitors aprotinin, leupeptin, pepstatin A and bacitracin) and centrifuged (2000 g). The supernatant was then centrifuged in 2M sucrose (31,300 g) to produce a semi-purified membrane pellet. The pellet was resuspended in homogenization and store at −80° C.
# (§3) On the day of the assay, the pellet was thawed on ice and diluted in assay buffer (50 mM Tris-HCl, 5 mM MgCl2, 2.5 mM EDTA, 0.5 mg/mL fatty acid free bovine serum albumin, pH 7.5). The diluted membrane was added with buffer, test compound or standard and the radioligand [H]^3+-CP-55,940_(0.2 nM) to the wells of a 96-well polypropylene plate. Non-specific binding was measured in wells containing 10 uM WIN 55,212. The plate was covered and incubated for 90 minutes at 30° C. The contents were then aspirated onto a Packard Unifilter G/C filter bottom plate prewet with 0.5% polyethyleneimine. The wells of the polypropylene plate were rinsed and aspirated seven times with a 0.9% saline-0.5% Tween 20 solution. The Unifilter plate was dried, a scintillation cocktail was added to each well and the counts representing binding were quantitated in a TopCount scintillation counter.
# (§4) The IC50 binding values for compounds tested were calculated by linear regression and were obtained from studies in which varying compound concentrations were used. Where an IC50 was not obtained, test results are provided as percent inhibition at a test concentration of ^a0.2 μM, ^b1 μM or ^c10 μM.
# human CB-2 receptor = molecular target: T1, human CB-2 receptor (Homo sapiens, UniProt P34972); test: Binding assay, cannabinoid CB2 receptor ([3H]-CP-55,940 displacement); conditions: for inhibition at 1 µM: test concentration 1 μM (superscript b); for inhibition at 1 µM / inhibition at 10 µM: read-out: CB2 binding percent inhibition
# T1 construct: expressed in transfected cells; host or cells: SK-N-MC cells, pcDNA3 CB-2 (human), semi-purified membranes
# Procedure: as §1, §2, §3, §4
# [1] = test concentration 10 μM (superscript c)
# T1 sequence (P34972 whole entry): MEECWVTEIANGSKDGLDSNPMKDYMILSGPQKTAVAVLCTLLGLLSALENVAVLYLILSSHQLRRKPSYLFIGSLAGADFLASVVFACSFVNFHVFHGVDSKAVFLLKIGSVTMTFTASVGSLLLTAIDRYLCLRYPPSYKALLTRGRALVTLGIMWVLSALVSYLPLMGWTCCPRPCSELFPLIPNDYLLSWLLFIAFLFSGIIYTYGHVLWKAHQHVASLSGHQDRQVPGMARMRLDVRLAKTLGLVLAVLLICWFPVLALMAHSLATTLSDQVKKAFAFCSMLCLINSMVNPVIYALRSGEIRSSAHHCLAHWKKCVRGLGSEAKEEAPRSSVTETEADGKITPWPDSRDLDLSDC
# Sequence of human CB1 receptor (P21554 whole entry): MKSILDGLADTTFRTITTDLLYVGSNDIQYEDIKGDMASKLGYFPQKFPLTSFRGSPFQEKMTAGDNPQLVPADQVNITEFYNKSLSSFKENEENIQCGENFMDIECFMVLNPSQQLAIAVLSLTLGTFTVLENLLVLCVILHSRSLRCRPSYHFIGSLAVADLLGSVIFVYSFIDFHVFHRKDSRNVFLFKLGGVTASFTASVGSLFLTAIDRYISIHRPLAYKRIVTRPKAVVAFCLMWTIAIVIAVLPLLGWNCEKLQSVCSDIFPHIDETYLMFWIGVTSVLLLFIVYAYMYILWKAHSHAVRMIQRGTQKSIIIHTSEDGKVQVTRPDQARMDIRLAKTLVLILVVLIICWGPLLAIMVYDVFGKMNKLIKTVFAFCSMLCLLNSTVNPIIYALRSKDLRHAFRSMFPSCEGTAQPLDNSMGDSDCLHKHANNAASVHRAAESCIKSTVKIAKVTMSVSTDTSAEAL
SMILES,inhibition at 1 µM (human CB1 receptor),inhibition at 1 µM (human CB-2 receptor),inhibition at 10 µM (human CB1 receptor),inhibition at 10 µM (human CB-2 receptor; [1]),"CB2 binding percent inhibition (human CB-2 receptor; test concentration 10 μM (superscript c), 10 µM)"
"C[C@@H](NS(=O)(=O)/C=C/c1c2c(nn1Cc1ccccc1)CCSC2)c1ccccc1 [Cpd 2, (E)-2-(2-benzyl-2,4,6,7-tetrahydro-thiopyrano[4,3-c]pyrazol-3-yl)-ethenesulfonic acid [(1R)-1-phenyl-ethyl]-amide]",13%,0%,–,–,–
"C[C@@H](NS(=O)(=O)/C=C/c1c2c(nn1Cc1ccccc1)CCS(=O)(=O)C2)c1ccccc1 [Cpd 4, (E)-2-(2-benzyl-5,5-dioxo-4,5,6,7-tetrahydro-2H-5λ^6-thiopyrano[4,3-c]pyrazol-3-yl)-ethenesulfonic acid [(1R)-1-phenyl-ethyl]-amide]",12%,0%,–,–,–
"C[C@H](NS(=O)(=O)/C=C/c1c2c(nn1Cc1ccccc1)CCSC2)c1ccccc1 [Cpd 5, (E)-2-(2-benzyl-2,4,6,7-tetrahydro-thiopyrano[4,3-c]pyrazol-3-yl)-ethenesulfonic acid [(1S)-1-phenyl-ethyl]-amide]",9%,9%,–,–,–
"C[C@@H](NS(=O)(=O)/C=C/c1c2c(nn1Cc1ccccc1)CCSC2)C1CCCCC1 [Cpd 6, (E)-2-(2-benzyl-2,4,6,7-tetrahydro-thiopyrano[4,3-c]pyrazol-3-yl)-ethenesulfonic acid [(1R)-1-cyclohexyl-ethyl]-amide]",16%,0%,–,–,–
"C[C@@H](NS(=O)(=O)/C=C/c1nn(Cc2ccccc2)c2c1CSCC2)c1ccccc1 [Cpd 7, (E)-2-(1-benzyl-1,4,6,7-tetrahydro-thiopyrano[4,3-c]pyrazol-3-yl)-ethenesulfonic acid [(1R)-1-phenyl-ethyl]-amide]",15%,44%,–,–,–
C[C@H](NS(=O)(=O)/C=C/c1c2c(nn1Cc1ccccc1)CCSC2)C1CCCCC1 [Cpd 8],8%,5%,–,–,–
"C[C@@H](NS(=O)(=O)/C=C/c1nn(Cc2ccccc2)c2c1CS(=O)(=O)CC2)c1ccccc1 [Cpd 9, (E)-2-(1-benzyl-5,5-dioxo-4,5,6,7-tetrahydro-1H-5λ^6-thiopyrano[4-3-c]pyrazol-3-yl)-ethenesulfonic acid [(1R)-1-phenyl-ethyl]-amide]",6%,6%,–,–,–
"C[C@H](NS(=O)(=O)/C=C/c1c2c(nn1Cc1ccccc1)CCS(=O)(=O)C2)c1ccccc1 [Cpd 10, (E)-2-(2-benzyl-5,5-dioxo-4,5,6,7-tetrahydro-2H-5λ^6-thiopyrano[4,3-c]pyrazol-3-yl)-ethenesulfonic acid [(1S)-1-phenyl-ethyl]-amide]",0%,36%,–,–,–
"C[C@@H](NS(=O)(=O)/C=C/c1nn(Cc2ccccc2)c2c1CSCC2)C1CCCCC1 [Cpd 11, (E)-2-(1-benzyl-1,4,6,7-tetrahydro-thiopyrano[4,3-c]pyrazol-3-yl)-ethenesulfonic acid [(1R)-1-cyclohexyl-ethyl]-amide]",29%,39%,–,–,–
"C[C@H](NS(=O)(=O)/C=C/c1nn(Cc2ccccc2)c2c1CSCC2)C1CCCCC1 [Cpd 12, (E)-2-(1-benzyl-1,4,6,7-tetrahydro-thiopyrano[4,3-c]pyrazol-3-yl)-ethenesulfonic acid [(1S)-1-cyclohexyl-ethyl]-amide]",15%,42%,–,–,–
"C[C@@H](NS(=O)(=O)/C=C/c1nn(Cc2ccccc2)c2c1CS(=O)(=O)CC2)C1CCCCC1 [Cpd 14, (E)-2-(1-benzyl-5,5-dioxo-4,5,6,7-tetrahydro-1H-5λ^6-thiopyrano[4,3-c]pyrazol-3-yl)-ethenesulfonic acid [(1R)-1-cyclohexyl-ethyl]-amide]",0%,0%,–,–,–
"C[C@H](NS(=O)(=O)/C=C/c1nn(Cc2ccccc2)c2c1CS(=O)(=O)CC2)C1CCCCC1 [Cpd 15, (E)-2-(1-benzyl-5,5-dioxo-4,5,6,7-tetrahydro-1H-5λ^6-thiopyrano[4,3-c]pyrazol-3-yl)-ethenesulfonic acid [(1S)-1-cyclohexyl-ethyl]-amide]",4%,0%,–,–,–
"C[C@@H](NS(=O)(=O)/C=C/c1c2c(nn1Cc1ccccc1)CCS(=O)(=O)C2)C1CCCCC1 [Cpd 16, (E)-2-(2-benzyl-5,5-dioxo-4,5,6,7-tetrahydro-2H-5λ^6-thiopyrano[4,3-c]pyrazol-3-yl)-ethenesulfonic acid [(1R)-1-cyclohexyl-ethyl]-amide]",0%,0%,–,–,–
"C[C@H](NS(=O)(=O)/C=C/c1c2c(nn1Cc1ccccc1)CCS(=O)(=O)C2)C1CCCCC1 [Cpd 17, (E)-2-(2-benzyl-5,5-dioxo-4,5,6,7-tetrahydro-2H-5λ^6-thiopyrano[4,3-c]pyrazol-3-yl)-ethenesulfonic acid [(1S)-1-cyclohexyl-ethyl]-amide]",0%,24%,–,–,–
"C[C@H](NS(=O)(=O)/C=C/c1nn(Cc2ccccc2)c2c1CS(=O)(=O)CC2)c1ccccc1 [Cpd 18, (E)-2-(1-benzyl-5,5-dioxo-4,5,6,7-tetrahydro-1H-5λ^6-thiopyrano[4,3-c]pyrazol-3-yl)-ethenesulfonic acid [(1S)-1-phenyl-ethyl]-amide]",0%,40%,–,–,–
"CC(NS(=O)(=O)/C=C/c1c2c(nn1Cc1ccccc1)CC[S+]([O-])C2)c1ccccc1 (stereo not shown) [Cpd 22, (E)-2-(2-benzyl-5-oxo-4,5,6,7-tetrahydro-2H-5λ^4-thiopyrano[4,3-c]pyrazol-3-yl)-ethenesulfonic acid (1-phenyl-ethyl)-amide]",11%,0%,0%,2%,–
"CC(NS(=O)(=O)/C=C/c1c2c(nn1Cc1ccccc1)CC[S+]([O-])C2)C1CCCCC1 (stereo not shown) [Cpd 26, (E)-2-(2-benzyl-5-oxo-4,5,6,7-tetrahydro-2H-5λ^4-thiopyrano[4,3-c]pyrazol-3-yl)-ethenesulfonic acid (1-cyclohexyl-ethyl)-amide]",–,–,–,22%,32%
"CC(NS(=O)(=O)/C=C/c1nn(Cc2ccccc2)c2c1C[S+]([O-])CC2)c1ccccc1 (stereo not shown) [Cpd 29, (E)-2-(1-benzyl-5-oxo-4,5,6,7-tetrahydro-1H-5λ^4-thiopyrano[4,3-c]pyrazol-3-yl)-ethenesulfonic acid (1-phenyl-ethyl)-amide]",–,–,8%,–,–
"C[C@H](NC(=O)/C=C/c1nn(Cc2ccccc2)c2c1CSCC2)c1ccccc1 [Cpd 32, (2E)-3-(1-benzyl-1,4,6,7-tetrahydro-thiopyrano[4,3-c]pyrazol-3-yl)-N-[(1S)-1-phenyl-ethyl]-acrylamide]",–,–,35%,47%,–
"C[C@H](NC(=O)/C=C/c1nn(Cc2ccccc2)c2c1C[S+]([O-])CC2)c1ccccc1 (stereo partly drawn) [Cpd 34, (2E)-3-(1-benzyl-5-oxo-4,5,6,7-tetrahydro-1H-5λ^4-thiopyrano[4,3-c]pyrazol-3-yl)-N-[(1S)-1-phenyl-ethyl]-acrylamide]",–,–,11%,21%,–
"C[C@H](NC(=O)/C=C/c1nn(Cc2ccccc2)c2c1CS(=O)(=O)CC2)c1ccccc1 [Cpd 36, (2E)-3-(1-benzyl-5,5-dioxo-4,5,6,7-tetrahydro-1H-5λ^6-thiopyrano[4,3-c]pyrazol-3-yl)-N-[(1S)-1-phenyl-ethyl]-acrylamide]",25.5%,–,1%,–,–
